Assay results: patent publication US20220073536A1 (Rigel Pharmaceuticals, Inc., priority 2003, published 2022)
One block for each molecule: values may come before it.

Experiments:
[1] = system: cultured human mast cells (CHMC); assay: CHMC low cell density IgE activation: tryptase assay; assay type: cell-based; details: IgE activation
Summary of the method: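 Anti-IgE-driven degranulation of cultured human mast cells at low density, 1000–1500 cells/well, was induced over 30 min at 37 °C. It was scored by supernatant tryptase activity on a fluorogenic substrate.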

[2] = system: cultured human mast cells (CHMC); assay: CHMC low cell density ionomycin activation: tryptase assay; assay type: cell-based; details: read-out: LD Tryptase, CHMC, Iono, 3 pt
[3] = low cell density CHMC, tryptase, 3 pt, read-out: LD Tryptase, CHMC, IgE, 3 pt
[4] = low cell density CHMC, tryptase, 8 pt, read-out: LD Tryptase, CHMC, IgE, 8 pt
[5] = low cell density CHMC, tryptase, 3 pt
[6] = Homo sapiens, Mast cell, low cell density CHMC, tryptase readout, 3 pt, read-out: LD Tryptase, CHMC, IgE, 3 pt
[7] = Homo sapiens, Mast cell, low cell density CHMC, tryptase readout, 8 pt, read-out: LD Tryptase, CHMC, IgE, 8 pt
[8] = Homo sapiens, Mast cell, low cell density CHMC, tryptase readout, 3 pt
[9] = Homo sapiens, Mast cell, low cell density CHMC, tryptase, 3 pt, read-out: LD Tryptase, CHMC, IgE, 3 pt
[10] = Homo sapiens, Mast cell, low cell density CHMC, tryptase, 8 pt, read-out: LD Tryptase, CHMC, IgE, 8 pt
[11] = Homo sapiens, Mast cell, low cell density CHMC, tryptase, 3 pt
[12] = Homo sapiens, Mast cell, low cell density CHMC, tryptase release, 3 pt, read-out: LD Tryptase, CHMC, IgE, 3 pt
[13] = Homo sapiens, Mast cell, low cell density CHMC, tryptase release, 8 pt, read-out: LD Tryptase, CHMC, IgE, 8 pt
[14] = Homo sapiens, Mast cell, low cell density CHMC, tryptase release, 3 pt
[15] = low cell density, 3 pt, read-out: LD Tryptase, CHMC, IgE, 3 pt
[16] = Homo sapiens, Mast cell, low cell density, 3 pt, read-out: LD Tryptase, CHMC, IgE, 3 pt
[17] = Homo sapiens, Mast cell, low cell density, 3 pt
[18] = low cell density CHMC, tryptase release, 3 point, read-out: LD Tryptase, CHMC, IgE, 3 pt
[19] = low cell density CHMC, tryptase release, 8 point, read-out: LD Tryptase, CHMC, IgE, 8 pt
[20] = low cell density CHMC, tryptase release, 3 point

IC50 ([1]; low cell density CHMC, tryptase readout, 3 pt, read-out: LD Tryptase, CHMC, IgE, 3 pt): < 10 µM
IC50 ([1]; low cell density CHMC, tryptase readout, 8 pt, read-out: LD Tryptase, CHMC, IgE, 8 pt): < 10 µM
IC50 ([2]; low cell density CHMC, tryptase readout, 3 pt): > 10 µM
Structure (SMILES): C[C@@H]1Oc2ccc(Nc3nc(Nc4cc(C(C)(C)C)[nH]n4)ncc3F)nc2NC1=O [Compound 1092, (S)-N2-(5-tert-Butyl-1H-pyrazol-3-yl)-5-fluoro-N4-(2-methyl-3-oxo-2H,4H-5-pyrid[1,4]oxazin-6-yl)-2,4-pyrimidinediamine]

Structure (SMILES): C[C@@H]1Oc2ccc(Nc3nc(Nc4ccc(CNC(=O)CNC(=O)OC(C)(C)C)cc4)ncc3F)cc2NC1=O [Compound 1308, (S)-N2-[4-[1-(tert-Butoxycarbonylamino)methylenecarbonylamino]methylphenyl]-5-fluoro-N4-(2-methyl-3-oxo-2H,4H-benz[1,4]oxazin-6-yl)-2,4-pyrimidinediamine]
IC50 [1, 3]: < 10 µM
IC50 [1, 4]: < 10 µM
IC50 [2, 5]: < 10 µM

IC50 [1, 6]: < 10 µM
IC50 [1, 7]: < 10 µM
IC50 [2, 8]: < 10 µM
Structure (SMILES): CC1(C)Oc2ccc(Nc3nc(Nc4cccc(-c5cocn5)c4)ncc3F)cc2NC1=O [Compound 1036, N4-(2,2-Dimethyl-3-oxo-4H-benz[1,4]oxazin-6-yl)-5-fluoro-N2-[3-(oxazol-4-yl)phenyl]-2,4-pyrimidinediamine]

IC50 [1, 9]: < 10 µM
IC50 [1, 10]: < 10 µM
IC50 [2, 11]: < 10 µM
Structure (SMILES): CC(=O)N1CCN(c2cccc(Nc3ncc(F)c(Nc4cc(C5CC5)n[nH]4)n3)c2)CC1 [Compound 1112]

IC50 [1, 12]: < 10 µM
IC50 [1, 13]: < 10 µM
IC50 [2, 14]: > 10 µM
Structure (SMILES): O=C1COc2cc(Nc3nc(Nc4cccc(-c5ncco5)c4)ncc3F)ccc2N1 [Compound 220]

IC50 [1, 12]: < 10 µM
IC50 [1, 13]: < 10 µM
IC50 [2, 14]: > 10 µM
Structure (SMILES): CC(=O)OCCCn1ncc2cc(Nc3ncc(F)c(Nc4ccc(Cl)c(Cl)c4)n3)ccc21 [Compound 787, N2-[1-(3-Acetyloxypropyl)indazol-5-yl]-N4-(3,4-dichlorophenyl)-5-fluoro-2,4-pyrimidinediamine]

IC50 [1, 15]: < 10 µM
IC50 ([2]; low cell density, 3 pt): > 10 µM
Structure (SMILES): CNC(=O)c1cc(Nc2ncc(F)c(N(C)c3ccc4c(c3)OCCO4)n2)ccc1Cl [Compound 453, N2-[4-Chloro-3-(N-methylamino)carbonylphenyl]-N4-(3,4-ethylenedioxyphenyl)-5-fluoro-N4-methyl-4-pyrimidinediamine]

IC50 [1, 15]: > 10 µM
IC50 ([2]; low cell density, 3 pt): > 10 µM
Structure (SMILES): CN(C)c1ncc(F)c(N(C)c2ccc3c(c2)OCCO3)n1 [Compound 462, N2-Dimethyl-N4-(3,4-ethylenedioxyphenyl)-5-fluoro-N4-methyl-2,4-pyrimidinediamine]

IC50 [1, 3]: < 10 µM
IC50 [1, 4]: < 10 µM
IC50 [2, 5]: > 10 µM
Structure (SMILES): NC1CCOc2ccc(Nc3nc(Nc4cccc(-c5cnco5)c4)ncc3F)cc21 (racemic) [Compound 1292, (R,S)-N4-[4-Amino-3,4-dihydro-2H-1-benzopyran-6-yl]-5-fluoro-N2-[3-(oxazol-5-yl)phenyl]-2,4-pyrimidinediamine]

IC50 [1, 16]: > 10 µM
IC50 [2, 17]: > 10 µM
Structure (SMILES): CNc1ncc(F)c(N(C)c2ccc(OC)nc2OC)n1 [Compound 500]

IC50 [1, 16]: < 10 µM
IC50 ([1]; Homo sapiens, Mast cell, low cell density, 8 pt, read-out: LD Tryptase, CHMC, IgE, 8 pt): < 10 µM
IC50 [2, 17]: > 10 µM
Structure (SMILES): COc1cc(Nc2ncc(F)c(Nc3ccc(C)cn3)n2)cc(OC)c1 [Compound 508, N2-(3,5-Dimethoxyphenyl)-5-fluoro-N4-(3-methylpyrid-6-yl)-2,4-pyrimidinediamine]

IC50 [1, 9]: < 10 µM
IC50 [2, 11]: > 10 µM
Structure (SMILES): CNC(=O)c1cc(Nc2ncc(F)c(Nc3cc(OC)cc(OC)c3)n2)ccc1Cl [Compound 450]

IC50 [1, 12]: < 10 µM
IC50 [1, 13]: < 10 µM
IC50 [2, 14]: > 10 µM
Structure (SMILES): O=C1Nc2cc(Nc3nc(Nc4cccc(-c5ncco5)c4)ncc3F)ccc2OC1CCO (stereo not drawn) [Compound 221]

IC50 [1, 6]: < 10 µM
IC50 [2, 8]: < 10 µM
Structure (SMILES): CN1C(=O)C(C)(C)Oc2ccc(N(C)c3nc(Nc4ccc(-c5ncco5)cc4)ncc3F)cc21 [Compound 1024]

IC50 [1, 12]: < 10 µM
IC50 [1, 13]: < 10 µM
IC50 [2, 14]: > 10 µM
Structure (SMILES): COc1cc(Nc2ncc(F)c(Nc3ccc4c(c3)N(C)C(=O)CS4)n2)cc(OC)c1 [Compound 260]

IC50 [1, 9]: < 10 µM
IC50 [2, 11]: > 10 µM
Structure (SMILES): COc1cc(C(N)=O)c(Nc2ncc(F)c(NC3CCCCC3)n2)cc1OCc1ccccc1 [Compound 1175, N2-(2-Aminocarbonyl-5-benzoxy-4-methoxyphenyl)-N4-cyclohexyl-5-fluoro-2,4-pyrimidinediamine]

IC50 [1, 6]: < 10 µM
IC50 [2, 8]: > 10 µM
Structure (SMILES): COc1c(C)cc(Nc2ncc(F)c(N(C)c3ccc4c(c3)N(C)C(=O)C(C)(C)O4)n2)cc1C [Compound 1031]

IC50 [1, 6]: < 10 µM
IC50 [2, 8]: > 10 µM
Structure (SMILES): CCOC(=O)N1CCN(c2cccc(Nc3ncc(F)c(Nc4cc(C(C)(C)C)[nH]n4)n3)c2)CC1 [Compound 1101, N4-(5-tert-Butyl-1H-pyrazol-3-yl)-N2-[3-(4-ethoxycarbonylpiperazino)phenyl]-5-fluoro-2,4-pyrimidinediamine]

IC50 [1, 18]: < 10 µM
IC50 [1, 19]: < 10 µM
IC50 [2, 20]: > 10 µM
Structure (SMILES): COC(=O)COc1ccc(Nc2nc(Nc3ccc4[nH]ccc4c3)ncc2F)cc1Cl [Compound 618, N4-[3-Chloro-4-(methoxycarbonyl)methyleneoxyphenyl]-5-fluoro-N2-(indol-5-yl)-2,4-pyrimidinediamine]

IC50 [1, 9]: < 10 µM
IC50 [1, 10]: < 10 µM
IC50 [2, 11]: > 10 µM
Structure (SMILES): CCn1ncc2cc(Nc3ncc(F)c(Nc4ccc(OC)c(Cl)c4)n3)ccc21 [Compound 694]

IC50 [1, 3]: < 10 µM
IC50 [2, 5]: > 10 µM
Structure (SMILES): COc1ccc(Nc2ncc(F)c(Nc3ccc4c(n3)NCCO4)n2)cc1Cl [Compound 1146, N2-(3-Chloro-4-methoxyphenyl)-N4-(3,4-dihydro-2H,4H-5-pyrid[1,4]oxazin-6-yl)-5-fluoro-2,4-pyrimidinediamine]

IC50 [1, 16]: > 10 µM
IC50 [2, 17]: > 10 µM
Structure (SMILES): COc1ccc(Nc2ncc(F)c(N(C)c3ccc4c(c3)OCCO4)n2)c(OC)n1 [Compound 458]

IC50 [1, 7]: < 10 µM
IC50 [2, 8]: < 10 µM
Structure (SMILES): Cc1cc(Nc2ncc(F)c(Nc3ccc4c(c3)NC(=O)C(C)(C)O4)n2)cc(Cl)c1OC(C)C [Compound 1039, N2-(3-Chloro-4-isopropoxy-5-methylphenyl)-N4-(2,2-dimethyl-3-oxo-4H-benz[1,4]oxazin-6-yl)-5-fluoro-2,4-pyrimidinediamine]

IC50 [1, 15]: > 10 µM
IC50 ([2]; low cell density, 3 pt): > 10 µM
Structure (SMILES): CN1C(=O)C(C)(C)Oc2ccc(Nc3nc(Cl)ncc3F)nc21 [Compound 1006, 2-Chloro-5-fluoro-N4-(3-oxo-2,2,4-trimethyl-5-pyrid[1,4]oxazin-6-yl)-4-pyrimidineamine]

IC50 [1, 12]: < 10 µM
IC50 [1, 13]: < 10 µM
IC50 [2, 14]: > 10 µM
Structure (SMILES): COCCn1ncc2cc(Nc3ncc(F)c(Nc4ccc5c(c4)NC(=O)C(C)(C)O5)n3)ccc21 [Compound 773, N4-(2,2-Dimethyl-3-oxo-4H-benz[1,4]oxazin-6-yl)-5-fluoro-N2-[1-(2-methoxyethyl)indazol-5-yl]-2,4-pyrimidinediamine]

IC50 [1, 18]: < 10 µM
IC50 [1, 19]: < 10 µM
IC50 [2, 20]: < 10 µM
Structure (SMILES): CNC(=O)COc1c(C)cc(Nc2ncc(F)c(N(C)c3cc(OC)cc(OC)c3)n2)cc1C [Compound 638, N2-[3,5-Dimethyl-4-(N-methylamino)carbonylmethyleneoxyphenyl]-N4-(3,5-dimethoxyphenyl)-5-fluoro-N4-methyl-2,4-pyrimidinediamine]

IC50 [1, 16]: > 10 µM
IC50 [2, 17]: > 10 µM
Structure (SMILES): CNc1ncc(F)c(N(C)c2ccc3c(c2)OCCO3)n1 [Compound 461]

IC50 [1, 9]: < 10 µM
IC50 [2, 11]: > 10 µM
Structure (SMILES): CC(=O)N1CCN(c2ccc(Nc3ncc(F)c(NC4CCCCC4)n3)cc2)CC1 [Compound 1163, N2-[4-(4-Acetylpiperazino)phenyl]-N4-cyclohexyl-5-fluoro-2,4-pyrimidinediamine]

IC50 [1, 6]: > 10 µM
IC50 [2, 8]: > 10 µM
Structure (SMILES): CC(=O)N1CCN(c2ccc(Nc3ncc(F)c(Nc4cccc(NC5=NCCN5)c4)n3)cc2)CC1 [Compound 1105, N2-[4-(4-Acetylpiperazino)phenyl]-5-fluoro-N4-[3-(N-2-imidazolin-2-yl)aminophenyl]-2,4-pyrimidinediamine]
